Patent US20090186832A1 (priority 2008, published 2009)
Several values for one entry are separate records, joined by “and”; a condition that tells them apart may be missing. Equal values may be shown once. Where a name gives a salt, the structure may show the parent alone. Read-outs that look alike come from different tables or passages of the source. Marks after values point to notes of the source that are not given here.

How the values were obtained:
[1] = for Meptazinol T>50% Cmax: analyte meptazinol, oral 1 mg meptazinol free base equivalents/kg
[2] = for Simulated gastric fluid (pH 1.1): % remaining after 2 h/37° C. / Simulated intestinal fluid (pH 6.8): % remaining after 2 h/37° C.: simulated gi fluid
[3] = dog, in vivo; for Cmax (mean ng/mL ± SD) / AUC (mean ngh/mL ± SD): po
[4] = cited from earlier work
[5] = dog, in vivo
[6] = plasma meptazinol, oral 1 mg meptazinol free base/kg, group 1 dogs (G1)

CCC1(c2cccc(OC(=O)NCC(=O)O)c2)CCCCN(C)C1.O=C(O)C(F)(F)F (racemic) [Meptazinol glycine carbamate TFA salt]
Mean relative bioavailability % ([1]; dog, in vivo): 79% | AUC (mean ngh/mL ± SD), *AUC0-t ([1]; dog, in vivo, po): 10.2* ± 3.4 | Cmax (mean ng/mL ± SD) ([1]; dog, in vivo, po): 2.51 ± 0.90 ng/mL

CCC1(c2cccc(OC(=O)N[C@H](C(=O)O)C(C)C)c2)CCCCN(C)C1 (stereo partly drawn) [Meptazinol valine carbamate zwitterion]
AUC (mean ngh/mL ± SD) ([1]; plasma meptazinol, oral 1 mg meptazinol free base/kg, group 2 dogs (G2)): 84.9 ± 40.6 ngh/mL

CCC1(c2cccc(OC(=O)N[C@H](C(=O)N[C@H](C(=O)O)C(C)C)C(C)C)c2)CCCCN(C)C1 (stereo partly drawn) [Meptazinol val-val dipeptide TFA salt, meptazinol-(S)-valine-(S)-valine carbamate trifluoroacetate]
AUC (mean ngh/mL ± SD) [1, 6]: 45.0 ± 12 ngh/mL

CCC1(c2cccc(OC(=O)NC(Cc3ccc(O)cc3)C(=O)O)c2)CCCCN(C)C1.O=C(O)C(F)(F)F (mixture of isomers) [Meptazinol tyrosine carbamate TFA salt]
Mean relative bioavailability % ([1]; dog, in vivo): 52% | AUC (mean ngh/mL ± SD), *AUC0-t ([1]; dog, in vivo, po): 6.61* ± 0.70 | Cmax (mean ng/mL ± SD) ([1]; dog, in vivo, po): 2.23 ± 0.16 ng/mL

CCC1(c2cccc(OC(=O)N[C@H](C(=O)O)C(C)C)c2)CCCCN(C)C1 (stereo partly drawn) [Meptazinol valine carbamate camsylate]
AUC (mean ngh/mL ± SD) [1, 6]: 62.4 ± 20.4 ngh/mL

CCC1(c2cccc(OC(=O)N[C@H](C(=O)N[C@@H](C)C(=O)O)C(C)C)c2)CCCCN(C)C1 (stereo partly drawn) [Meptazinol val-ala dipeptide TFA salt]
AUC (mean ngh/mL ± SD) [1, 6]: 36.5 ± 13 ngh/mL

COC12CCC3(CC1C(C)(O)C(C)(C)C)C1Cc4ccc(OC(=O)NC(CC(=O)O)C(=O)O)c5c4C3(CCN1CC1CC1)C2O5 (stereo not drawn) [Buprenorphine-Asp-Carbamate]
pH 10.0 buffer: % remaining after 2 h/20° C. [2]: 85% | Distilled water (pH 5.9): % remaining after 2h/20° C. [2]: 100% | Simulated gastric fluid (pH 1.1): % remaining after 2 h/37° C. [2]: 100% | Simulated intestinal fluid (pH 6.8): % remaining after 2 h/37° C. [2]: 99%

Oxymorphone-Val-Carbamate
pH 10.0 buffer: % remaining after 2 h/20° C. [2]: 32% | Distilled water (pH 5.9): % remaining after 2h/20° C. [2]: 100% | Simulated gastric fluid (pH 1.1): % remaining after 2 h/37° C. [2]: 100% | Simulated intestinal fluid (pH 6.8): % remaining after 2 h/37° C. [2]: 97%

CSCC[C@@H](NC(=O)Oc1ccc2c3c1OC1C(=O)CC[C@@]4(O)[C@@H](C2)N(C)CC[C@]314)C(=O)O (stereo partly drawn) [Oxymorphone methionine carbamate TFA]
Mean relative bioavailability % ([3]; Beagle, 0.5 mg/kg): 436% | Cmax (mean ng/mL ± SD) ([3]; Beagle, 0.5 mg/kg): 13.8 ± 4.6 ng/mL | AUC (mean ngh/mL ± SD) [3]: 55.4 ± 15.2

CN1CC[C@]23c4c5ccc(OC(=O)N[C@@H](Cc6ccc(O)cc6)C(=O)O)c4O[C@H]2C(=O)CC[C@@]3(O)[C@H]1C5.O=C(O)C(F)(F)F [Oxymorphone tyrosine carbamate TFA]
Mean relative bioavailability % [3]: 157% | AUC (mean ngh/mL ± SD) [3]: 17.3 ± 3.0 | Cmax (mean ng/mL ± SD) [3]: 4.62 ± 1.12 ng/mL

CCC1(c2cccc(OC(=O)N[C@H](C(=O)O)C(C)C)c2)CCCCN(C)C1 (stereo partly drawn) [Meptazinol-Val-Carbamate]
pH 10.0 buffer: % remaining after 2 h/20° C. [2]: 66%

CCC(C)[C@H](NC(=O)Oc1cccc(C2(CC)CCCCN(C)C2)c1)C(=O)O (stereo partly drawn) [Meptazinol isoleucine carbamate TFA salt]
AUC (mean ngh/mL ± SD) [1, 6]: 34.9 ± 11 ngh/mL

CCC1(c2cccc(OC(=O)NC(Cc3c[nH]c4ccccc34)C(=O)O)c2)CCCCN(C)C1.O=C(O)C(F)(F)F (mixture of isomers) [Meptazinol tryptophan carbamate TFA salt]
Mean relative bioavailability % ([1]; dog, in vivo): 149% | AUC (mean ngh/mL ± SD), *AUC0-t ([1]; dog, in vivo, po): 19.1* ± 8.9 | Cmax (mean ng/mL ± SD) ([1]; dog, in vivo, po): 8.21 ± 2.56 ng/mL

CCC1(c2cccc(OC(=O)N[C@H](C(=O)O)C(C)C)c2)CCCCN(C)C1 (stereo partly drawn) [Meptazinol valine carbamate TFA salt, meptazinol-(S)-valine carbamate trifluoroacetate]
AUC (mean ngh/mL ± SD) [1, 6]: 67.7 ± 25 ngh/mL

CN1CC[C@]23c4c5ccc(OC(=O)NCC(=O)O)c4O[C@H]2C(=O)CC[C@@]3(O)[C@H]1C5.O=C(O)C(F)(F)F [Oxymorphone glycine carbamate TFA]
Mean relative bioavailability % [3]: 554% | AUC (mean ngh/mL ± SD) [3]: 67.9 ± 34.1 | Cmax (mean ng/mL ± SD) [3]: 21 ± 10.9 ng/mL

CCC1(c2cccc(OC(=O)N[C@H](C(=O)NCC(=O)O)C(C)C)c2)CCCCN(C)C1 (stereo partly drawn) [Meptazinol val-gly dipeptide TFA salt]
AUC (mean ngh/mL ± SD) [1, 6]: 39.9 ± 17 ngh/mL

CCC1(c2cccc(O)c2)CCCCN(C)C1 (stereo not drawn) [meptazinol, 3-(3-Ethyl-1-methyl-azepan-3-yl)-phenol]
range of observed oral bioavailabilities ([4]; oral, Norbury et al. (1983)): 2-20% | reported mean bioavailability values ([4]; oral, Norbury et al. (1983)): 4-9% | oral dose removed as it passes through the liver (first pass metabolism) ([4]; oral): up to 98% | bioavailability ([4]; rectal formulation, Murray et al. (1989)): 15-20% | relative standard deviation (variability in meptazinol levels, mean AUC) ([1]; beagle, dog, in vivo, po): 26% | Meptazinol AUC ([1]; beagle, dog, in vivo, po, 1 mg): 12.8±3.4

CCC1(c2cccc(OC(=O)NC(C)C(=O)NC(C)C(=O)O)c2)CCCCN(C)C1.O=C(O)C(F)(F)F (mixture of isomers) [Meptazinol ala-ala dipeptide TFA salt]
AUC (mean ngh/mL ± SD) [1, 6]: 11.4 ± 2.9 ngh/mL | Cmax (mean ng/mL ± SD) [1, 6]: 2.73 ± 1.28 ng/mL

COC12CCC3(CC1C(C)(O)C(C)(C)C)C1Cc4ccc(OC(=O)NC(Cc5ccccc5)C(=O)O)c5c4C3(CCN1CC1CC1)C2O5 (stereo not drawn) [Buprenorphine phenylalanine carbamate]
pH 10.0 buffer: % remaining after 2 h/20° C. [2]: 74% | Distilled water (pH 5.9): % remaining after 2h/20° C. [2]: 99% | Simulated gastric fluid (pH 1.1): % remaining after 2 h/37° C. [2]: 100% | Simulated intestinal fluid (pH 6.8): % remaining after 2 h/37° C. [2]: 45% | AUC (mean ngh/mL ± SD) [5]: 9.66 ± 1.92 | Cmax (mean ng/mL ± SD) [5]: 0.86 ± 0.32 ng/mL | Mean relative bioavailability % [5]: 84.5%

CCC1(c2cccc(OC(=O)NC(C(=O)OC)C(C)C)c2)CCCCN(C)C1.Cl (mixture of isomers) [Meptazinol valine carbamate methyl ester HCl]
Mean relative bioavailability % ([1]; dog, in vivo): 606% | AUC (mean ngh/mL ± SD) ([1]; dog, in vivo, po): 78.1 ± 17.1 | Cmax (mean ng/mL ± SD) ([1]; dog, in vivo, po): 44.8 ± 8.2 ng/mL

CSCC[C@@H](NC(=O)Oc1ccc2c3c1OC1C(=O)CC[C@@]4(O)[C@@H](C2)N(C)CC[C@]314)C(=O)O (stereo partly drawn) [Oxymorphone-Methio-Carbamate]
pH 10.0 buffer: % remaining after 2 h/20° C. [2]: 8% | Distilled water (pH 5.9): % remaining after 2h/20° C. [2]: 100% | Simulated gastric fluid (pH 1.1): % remaining after 2 h/37° C. [2]: 100% | Simulated intestinal fluid (pH 6.8): % remaining after 2 h/37° C. [2]: 96%

CCC1(c2cccc(OC(=O)NC(C)C(=O)O)c2)CCCCN(C)C1.Cl (mixture of isomers) [Meptazinol alanine carbamate HCl salt]
Mean relative bioavailability % ([1]; dog, in vivo): 116% | AUC (mean ngh/mL ± SD) ([1]; dog, in vivo, po): 16.3 ± 3.6 | Cmax (mean ng/mL ± SD) ([1]; dog, in vivo, po): 5.2 ± 1.59 ng/mL

CN1CC[C@]23c4c5ccc(O)c4O[C@H]2C(=O)CC[C@@]3(O)[C@H]1C5 [Oxymorphone HCl, reference compound]
Cmax (mean ng/mL ± SD) ([3]; Beagle, 0.5 mg/kg): 3.8 ± 0.77 ng/mL | AUC (mean ngh/mL ± SD) [3]: 12.2 ± 1.6

Oxymorphone isoleucine carbamate TFA
Mean relative bioavailability % [3]: 570% | AUC (mean ngh/mL ± SD) [3]: 65.8 ± 32 | Cmax (mean ng/mL ± SD) [3]: 17.2 ± 9.9 ng/mL

CCC1(c2cccc(OC(=O)NC(CC(=O)O)C(=O)O)c2)CCCCN(C)C1.O=C(O)C(F)(F)F (mixture of isomers) [Meptazinol apartic acid carbamate TFA salt]
Mean relative bioavailability % ([1]; dog, in vivo): 273% | AUC (mean ngh/mL ± SD), *AUC0-t ([1]; dog, in vivo, po): 34.8* ± 1.0 | Cmax (mean ng/mL ± SD) ([1]; dog, in vivo, po): 2.65 ± 0.34 ng/mL

Oxymorphone-Isoleu-Carbamate
pH 10.0 buffer: % remaining after 2 h/20° C. [2]: 36% | Distilled water (pH 5.9): % remaining after 2h/20° C. [2]: 100% | Simulated gastric fluid (pH 1.1): % remaining after 2 h/37° C. [2]: 100% | Simulated intestinal fluid (pH 6.8): % remaining after 2 h/37° C. [2]: 97%

COC12CCC3(CC1C(C)(O)C(C)(C)C)C1Cc4ccc(OC(=O)NC(CCCCN)C(=O)O)c5c4C3(CCN1CC1CC1)C2O5 (stereo not drawn) [Buprenorphine lysine carbamate]
AUC (mean ngh/mL ± SD) [5]: 4.70 | Cmax (mean ng/mL ± SD) [5]: 0.25 ± 0.19 ng/mL | Mean relative bioavailability % [5]: 38%

CCC(C)[C@@H](NC(=O)Oc1ccc2c3c1OC1[C@@]4(OC)CC[C@@]5(C[C@@H]4[C@@](C)(O)C(C)(C)C)[C@@H](C2)N(CC2CC2)CC[C@]315)C(=O)O (stereo partly drawn) [Buprenorphine isoleucine carbamate]
Cmax (mean ng/mL ± SD) ([5]; beagle, po): 1.25 ± 0.51 ng/mL | Mean relative bioavailability % ([5]; beagle, po): 110% | AUC (mean ngh/mL ± SD) [5]: 13.6 ± 3.9

CN1CC[C@]23c4c5ccc(OC(=O)N[C@@H](Cc6ccccc6)C(=O)O)c4O[C@H]2C(=O)CC[C@@]3(O)[C@H]1C5 [Oxymorphone-Phe-Carbamate]
pH 10.0 buffer: % remaining after 2 h/20° C. [2]: 17% | Distilled water (pH 5.9): % remaining after 2h/20° C. [2]: 100% | Simulated gastric fluid (pH 1.1): % remaining after 2 h/37° C. [2]: 100% | Simulated intestinal fluid (pH 6.8): % remaining after 2 h/37° C. [2]: 82%

CN1CC[C@]23c4c5ccc(OC(=O)N[C@@H](Cc6ccccc6)C(=O)O)c4O[C@H]2C(=O)CC[C@@]3(O)[C@H]1C5.Cl [Oxymorphone phenylalanine carbamate HCl]
Mean relative bioavailability % [3]: 244% | AUC (mean ngh/mL ± SD) [3]: 29.5 ± 2.2 | Cmax (mean ng/mL ± SD) [3]: 5.45 ± 1.32 ng/mL

CCC1(c2cccc(OC(=O)NC(CC(C)C)C(=O)O)c2)CCCCN(C)C1.O=C(O)C(F)(F)F (mixture of isomers) [Meptazinol leucine carbamate TFA salt]
Mean relative bioavailability % ([1]; dog, in vivo): 70% | AUC (mean ngh/mL ± SD) ([1]; dog, in vivo, po): 9.27 ± 1.6 | Cmax (mean ng/mL ± SD) ([1]; dog, in vivo, po): 3.32 ± 1.4 ng/mL

Oxymorphone valine carbamate TFA
Mean relative bioavailability % [3]: 816% | AUC (mean ngh/mL ± SD) [3]: 51.2 ± 35 | Cmax (mean ng/mL ± SD) [3]: 14.6 ± 8.69 ng/mL

CCC1(c2cccc(OC(=O)N[C@H](C(=O)O)C(C)C)c2)CCCCN(C)C1 (stereo partly drawn) [Meptazinol valine carbamate HCl, 2-[3-(3-Ethyl-1-methyl-azepin-3-yl)-phenoxycarbonylamino]-3-methyl-butyric acid hydrochloride]
Meptazinol T>50% Cmax ([1]; individual dogs 1-5, hydrochloride): 0.5 h (3×) and 1.5 h (2×) | Meptazinol T>50% Cmax ([1]; median value): 0.5^a h | AUC (mean ngh/mL ± SD) ([1]; plasma meptazinol, oral 1 mg meptazinol free base/kg, group 2 dogs (G2), hydrochloride): 67.6 ± 9.2 ngh/mL
